Experimental data from publication PMC6934184, “Selective DNA-PKcs inhibition extends the therapeutic index of localized radiotherapy and chemotherapy” (The Journal of Clinical Investigation, 2019).

Molecular target: T1, RIPK3 (Homo sapiens, UniProt Q9Y572)
T1 construct: purchased Thermo Fisher Scientific (Life Technologies) SelectScreen
Experiment: SelectScreen LanthaScreen
Type: binding
Conditions: read-out: % displacement
Outline: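 NU5455 was profiled across the SelectScreen Broad panel of kinase activity and binding assays. Z'LYTE reactions such as CSF1R ran at apparent Km ATP, while the Adapta CAMK1 assay used ATP listed as 10. Values are given as percent.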

T1 sequence (Q9Y572 whole entry): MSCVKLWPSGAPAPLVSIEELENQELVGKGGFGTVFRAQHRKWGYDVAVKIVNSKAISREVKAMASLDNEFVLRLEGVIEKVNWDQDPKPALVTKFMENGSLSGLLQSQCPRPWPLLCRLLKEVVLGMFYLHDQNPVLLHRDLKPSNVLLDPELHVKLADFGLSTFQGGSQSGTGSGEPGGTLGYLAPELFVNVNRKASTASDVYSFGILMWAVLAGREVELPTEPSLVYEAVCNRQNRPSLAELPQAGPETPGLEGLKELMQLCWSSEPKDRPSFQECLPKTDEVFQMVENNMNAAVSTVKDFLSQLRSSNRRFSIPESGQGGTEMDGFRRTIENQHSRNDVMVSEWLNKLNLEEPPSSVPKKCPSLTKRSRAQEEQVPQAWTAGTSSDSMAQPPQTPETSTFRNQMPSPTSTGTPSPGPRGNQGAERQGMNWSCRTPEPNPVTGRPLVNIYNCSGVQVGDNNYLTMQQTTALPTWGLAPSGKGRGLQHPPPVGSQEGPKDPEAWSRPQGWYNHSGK

Question: With `CN(C(=O)CN1CCOCC1)c1ccc2sc3c(-c4cccc5c(=O)cc(N6CC7CCC(C6)O7)oc45)cccc3c2c1` [NU5455] as the molecule, how does the inhibition at 1 µM read?
Answer: -2.3%
